Values of other authors in publication PMC5102340 (Advanced functional materials, 2016).
Where two headings read alike, the source gives them in different places.

Oc1ccccc1O [Catechol]
pKa1: ≈ 9.4
pKa2: ≈ 13.7
pKa1 (listed as catechol): 9.4
